The text below walks through data of PMC9501232, “Novel 4-Azapregnene Derivatives as Potential Anticancer Agents: Synthesis, Antiproliferative Activity and Molecular Docking Studies” (Molecules, 2022).

Assay type in all cases: cell-based, human
In assay [1] the test system is caspase-9 activity in T47-D cells. The assay can be described thus: Caspase-Glo 9 caspase-9 activity assay. Particulars: 48 h, DOX 10 µM, 3g 10 and 20 µM, relative to untreated cells. As to the method: Promega Caspase-Glo 9 assay (Promega, Madison, WI, USA) was employed to evaluate the caspase-9 activity. T47-D cells were seeded in a 96 multiwell plate at a density of 4 × 10^4 cells/mL. After 48 h, cells were treated with the positive control, DOX, at 10 μM and with 10 and 20 μM of 3g, during 48 h. The assay was performed at the end of treatment, following the instructions provided by the manufacturer. Data are representative of at least two experiments (n = 4 in each).

The subject of the next assay is T47-D cells. Briefly: MTT cell proliferation assay, T47-D. Particulars: 72 h. As to the method:
(§1) Cell lines, namely LNCaP, PC-3, T47-D and NHDF were obtained from American Type Culture Collection (ATCC; Manassas, VA, USA) and cultured in 75 cm^2 culture flasks at 37 °C in a humidified air incubator with 5% CO2. LNCaP, PC-3 and T47-D cells, which were used in passages 20th to 27th, 25th to 29th and 10th to 15th, respectively, were cultured in RPMI 1640 medium (Sigma-Aldrich, Inc., St. Louis, MO, USA) with 10% fetal bovine serum (FBS; Sigma-Aldrich, Inc. St. Louis, MO, USA) and 1% of the antibiotic mixture of 10,000 IU/mL penicillin G and […] of streptomycin (Sp, Sigma-Aldrich, Inc. St. Louis, MO, USA). Finally, NHDF cells (Normal Human Dermal Fibroblasts) were cultured in RPMI 1640 medium supplemented with 10% FBS, 2 mM L-glutamine, 10 mM HEPES, 1 mM sodium pyruvate and 1% of an antibiotic/antimycotic mixture (10,000 U/mL penicillin G, 100 mg/mL streptomycin and 25 µg/mL amphotericin B) (Ab; Sigma-Aldrich, Inc. St. Louis, MO, USA), and these cells were used in passages 10 to 12. For all cell types, the medium was renewed every 2–3 days until cells reach nearly the confluence state. Then, they were detached gently by trypsinization (trypsin-EDTA solution: 0.125 g/L of trypsin and 0.02 g/L of EDTA).
(§2) All the stock solutions were prepared by dissolving compounds in dimethyl sulfoxide (DMSO; Sigma-Aldrich, Inc., St. Louis, MO, USA) at 10 mM and stored at 4 °C. From these solutions, the several diluted compounds solutions in different concentrations were freshly prepared in a complete culture medium before each experiment.
(§3) As previously referred, cells were trypsinized after reaching a near confluence state and counted by the trypan blue exclusion assay in a Neubauer chamber. Then, 100 µL of cell suspension/well with an initial density of 2 × 10^4 cells/mL were seeded in 96-well culture plates (Nunc, Apogent, Denmark) and left to adhere for 48 h. After cells adherence, the medium was replaced by the distinct solutions of the compounds in the study (30 µM for preliminary studies and 0.01, 0.1, 1, 10, 50 and 100 µM for concentration–response studies) in the appropriate medium for approximately 72 h. 5-FU and finasteride were used as positive controls and untreated cells were used as the negative control. Each experiment was performed in quadruplicate and independently performed at least two times. The in vitro antiproliferative effects were evaluated by the MTT assay (Sigma-Aldrich, Inc. St. Louis, USA). After the incubation period, the medium was removed and 100 µL of phosphate buffer saline (NaCl 137 mM, KCl 2.7 mM, Na2HPO4 10 mM and KH2PO4 1.8 mM in deionized water and pH adjusted to 7.4) were used to wash the cells. Then, 100 µL of the MTT solution (5 mg/mL) was prepared in the appropriate serum-free medium and was added to each well, followed by incubation for 4 h at 37 °C. Hereafter, the MTT containing medium was removed and the formazan crystals were dissolved in DMSO. Then the absorbance was measured at 570 nm using a microplate spectrophotometer BIO-RAD xMarkTM. Cell viability values were expressed as percentages relative to the absorbance determined in the cells used as negative controls.
(§4) The data are expressed as a mean ± standard deviation (SD) and differences between groups were considered statistically significant when p < 0.05. The IC50 values were determined through sigmoidal fitting analysis with variable slope and considering a 95% confidence level. All data shown are representative of at least two independent experiments.

In another assay the test system is LNCaP cells. Briefly: Microscopic cell morphology observation. The following applies: 24 and 72 h of treatment. As to the method: In our previous work, 16E-arylidene-4-azaandrost-5-ene derivatives were synthesized, their antiproliferative effects were evaluated and further studies were performed with the most promising steroid in LNCaP cells. Due to the similarity of 16E-arylidene-4-azaandrostenes and these novel 21E-arylidene-4-azapregnene derivatives, identical studies in this cell line were performed, namely a flow cytometry assay and microscopic cell morphology observation. To assess the viability of LNCaP cells when exposed to steroid 3g, a flow cytometry assay after PI staining was performed. Cells were treated with 3g and 5-FU during 24 and 72 h, and then a microscopic cell observation was performed to assess the possible morphological alterations and cell density changes triggered by incubation with 3g and compare with controls (Figure 6).
Similar to the previous study, the analysis of cell viability was accomplished by flow cytometry after staining dead cells with propidium iodide (PI; Invitrogen, Carlsbad, USA). Succinctly, 1 mL of a cell suspension was seeded in 12-well culture plates (initial cell density of 5 × 10^4 cells/mL of LNCaP cells for 24 h assay and 2 × 10^4 cells/mL of the same cell line for 72 h assay) in a complete culture medium. […] The percentages of each region were calculated for a total of R1 + R2 + R3. […]

The subject of another assay is PC-3 cells. Briefly: MTT cell proliferation assay, PC-3. As to the method: as §1, §2, §3, §4

The structures appear in SMILES notation.

For `C[C@]12CC[C@H]3[C@@H](CC=C4NC(=O)CC[C@@]43C)[C@@H]1CC[C@@H]2C(=O)/C=C/c1cccnc1` [Compound 3g, 21E-[(Pyridin-3-yl)methylidene]-4-azapregn-5-ene-3,20-dione], the Caspase-9 activity entry in assay [1] is listed as “significant elevation in caspase-9 activity”. The “MTT screening, cell proliferation” value in the assay on T47-D cells (30 µM, average ± SD) is listed as 1.0 ± 0.4 percentage of negative control; in the assay on PC-3 cells (PC-3, 30 µM, 72 h, average ± SD), 0.1 ± 0.1 percentage of negative control. Moreover, the IC50 in the assay with T47-D cells (Homo sapiens, T47D, MTT) was 1330 nM; in the assay on PC-3 cells (Homo sapiens, PC-3, 72 h, MTT), 3640 nM. Also, in the assay on LNCaP cells, the “Cell morphology and cell density” value is “detached, forming clusters and presenting a round form”.
